Data as given in publication PMC11547093, “Novel Phenoxyalkanoic Acid Derivatives as Free Fatty Acid Receptor 4 Agonists for Treating Type 2 Diabetes Mellitus” (International Journal of Molecular Sciences, 2024).
Each block holds one compound with its values, some of them ahead of it.

How the values were obtained:
human FFAR4 = biological target: T1, human FFAR4 (Homo sapiens, UniProt Q5NUL3); assay: cell-based
T1 sequence (Q5NUL3 1-361): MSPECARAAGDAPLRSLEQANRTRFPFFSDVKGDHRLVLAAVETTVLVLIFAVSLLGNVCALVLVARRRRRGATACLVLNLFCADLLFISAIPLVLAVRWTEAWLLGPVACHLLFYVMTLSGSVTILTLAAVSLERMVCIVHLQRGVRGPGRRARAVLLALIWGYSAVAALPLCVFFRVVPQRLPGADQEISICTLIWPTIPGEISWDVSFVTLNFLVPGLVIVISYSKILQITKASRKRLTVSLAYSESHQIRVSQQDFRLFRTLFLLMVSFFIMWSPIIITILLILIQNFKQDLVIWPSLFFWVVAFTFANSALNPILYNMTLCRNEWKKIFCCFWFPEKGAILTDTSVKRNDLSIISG

normal ICR mice = assay: oral glucose tolerance test in normal ICR mice; conditions: 20 mg/kg by gavage 30 min before glucose 2 g/kg, AUC 0-120 min
Experimental: Compounds (20 mg/kg) or the vehicle was administered by gavage 30 min before glucose administration (2 g/kg). […] The test compounds were dissolved in 0.5% methyl cellulose (MC) and vortexed before the study initiation. […] The exact dose volume was calculated separately for each animal. […] Blood glucose levels were measured using blood glucose test strips (Sannuo GA-3 type; Changsha, China).

DIO mice = assay: anti-hyperglycemic effects (OGTT, insulin) in diet-induced obese (DIO) mice; format: in vivo, C57BL/6 mice; conditions: for reduction of blood glucose AUC versus vehicle-treated group: AUC -30 to 120 min
Experimental: During the experimental period, plasma insulin levels were measured 30 min after glucose administration using an insulin ELISA Kit.
Plasma insulin levels were measured using a mouse insulin RIA kit 30 min after oral glucose loading (Beijing North Institute of Biological Technology, Beijing, China).

[1] = pharmacokinetic study in ICR mice; format: in vivo; conditions: oral 10 mg/kg
Experimental: The AUC was calculated using the trapezoidal method.
Plasma was collected and precipitated using two volumes of acetonitrile containing an internal standard. This step was followed by centrifugation at 15.680 g for 10 min after vortexing for 5 min. The supernatant was diluted with acetonitrile, and 10 µL of the supernatant was analyzed by Waters LC-PDA-MS/MS to determine plasma drug levels. Pharmacokinetic parameters were determined using mean data from four mice at each time point. Statistical analysis of the data was performed using the DAS 2.1.1 statistical software program (BioVoice, Shanghai, China).

human FFAR1 = biological target: T2, human FFAR1 (Homo sapiens, UniProt O14842); assay: calcium influx assay, hFFAR1 (hGPR40) agonistic activity in transfected CHO cells; format: cell-based
T2 construct: expressed in transfected cells; host or cells: CHO cells
T2 sequence (O14842 whole entry): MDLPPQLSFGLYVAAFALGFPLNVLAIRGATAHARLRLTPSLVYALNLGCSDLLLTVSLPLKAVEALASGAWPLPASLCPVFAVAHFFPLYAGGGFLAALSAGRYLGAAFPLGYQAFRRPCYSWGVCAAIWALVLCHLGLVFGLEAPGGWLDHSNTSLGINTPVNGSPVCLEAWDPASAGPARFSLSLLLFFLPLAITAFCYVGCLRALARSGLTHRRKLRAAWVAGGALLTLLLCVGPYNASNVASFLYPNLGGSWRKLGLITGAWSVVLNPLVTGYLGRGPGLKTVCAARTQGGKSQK

EC50 (human FFAR4): 136 nM
SMILES: Cc1ccc(-c2ccc(F)cc2NC(=O)c2ccc(OCC(=O)O)cc2)cc1 [Compound 1f, 2-(4-((4-fluoro-4′-methyl-[1,1′-biphenyl]-2-yl)carbamoyl)phenoxy)acetic acid]

EC50 (human FFAR4): 189 nM
SMILES: Cc1ccc(-c2ccc(F)cc2NC(=O)c2ccc(OCCCC(=O)O)cc2)cc1 [Compound 2f, 4-(4-((4-fluoro-4′-methyl-[1,1′-biphenyl]-2-yl)carbamoyl)phenoxy)butanoic acid]

EC50 (human FFAR4): 236 nM
SMILES: Cc1ccc(-c2ccc(F)cc2NC(=O)c2ccc(OCCCCC(=O)O)cc2)cc1 [Compound 3f, 5-(4-((4-fluoro-4′-methyl-[1,1′-biphenyl]-2-yl)carbamoyl)phenoxy)pentanoic acid]

EC50 (human FFAR4): 145 nM
SMILES: Cc1ccc(-c2ccc(F)cc2NC(=O)c2ccc(OCC(=O)O)c(C)c2)cc1 [Compound 4f, 2-(4-((4-fluoro-4′-methyl-[1,1′-biphenyl]-2-yl)carbamoyl)-2-methylphenoxy)acetic acid]

EC50 (human FFAR4): 113 nM
SMILES: Cc1ccc(-c2ccc(F)cc2NC(=O)c2ccc(OCCCC(=O)O)c(C)c2)cc1 [Compound 5f, 4-(4-((4-fluoro-4′-methyl-[1,1′-biphenyl]-2-yl)carbamoyl)-2-methylphenoxy)butanoic acid]
reduction of blood glucose AUC versus vehicle-treated group (normal ICR mice): 16.7%

EC50 (human FFAR4): 218 nM
SMILES: Cc1ccc(-c2ccc(F)cc2NC(=O)c2ccc(OCCCCC(=O)O)c(C)c2)cc1 [Compound 6f, 5-(4-((4-fluoro-4′-methyl-[1,1′-biphenyl]-2-yl)carbamoyl)-2-methylphenoxy)pentanoic acid]

EC50 (human FFAR4): 189 nM
SMILES: Cc1ccc(-c2ccc(F)cc2NC(=O)c2ccc(OCC(=O)O)cc2C)cc1 [Compound 7f, 2-(4-((4-fluoro-4′-methyl-[1,1′-biphenyl]-2-yl)carbamoyl)-3-methylphenoxy)acetic acid]

EC50 (human FFAR4): 246 nM
SMILES: Cc1ccc(-c2ccc(F)cc2NC(=O)c2ccc(OCCCC(=O)O)cc2C)cc1 [Compound 8f, 4-(4-((4-fluoro-4′-methyl-[1,1′-biphenyl]-2-yl)carbamoyl)-3-methylphenoxy)butanoic acid]

EC50 (human FFAR4): 279 nM
SMILES: Cc1ccc(-c2ccc(F)cc2NC(=O)c2ccc(OCCCCC(=O)O)cc2C)cc1 [Compound 9f, 5-(4-((4-fluoro-4′-methyl-[1,1′-biphenyl]-2-yl)carbamoyl)-3-methylphenoxy)pentanoic acid]

hypoglycemia during the experiment (DIO mice; doses up to 100 mg/kg oral): no hypoglycemia was observed | Tmax ([1]; male, mouse, plasma): 30 min | AUC ([1]; male, mouse, plasma, 0 to 24 h, mean ± SD of four mice): 9830 ± 2930 ng·h/mL | Cmax ([1]; male, mouse, plasma, 0.5% methyl cellulose, mean ± SD of four mice): 3140 ± 1150 ng/mL | half-life ([1]; male, mouse, plasma, mean ± SD of four mice): 90.6 ± 30.6 min | Cmax relative to TUG-891 [1]: 2.5 times | potency in stimulating FFAR4 over FFAR1 (selectivity) (human FFAR1; FFAR4 versus FFAR1): approximately 400 fold | EC50 (human FFAR1; human FFAR1 transfected CHO cells, calcium influx): 32.9 µM | EC50 (human FFAR4): 78.6 nM
SMILES: Cc1ccc(-c2ccc(F)cc2NC(=O)c2ccc(OCC(=O)O)c(F)c2)cc1 [Compound 10f, 2-(2-fluoro-4-((4-fluoro-4′-methyl-[1,1′-biphenyl]-2-yl)carbamoyl)phenoxy)acetic acid]
reduction of blood glucose AUC versus vehicle-treated group (DIO mice; 30 mg/kg oral 30 min before glucose 2 g/kg): 20.1% | reduction of blood glucose AUC versus vehicle-treated group (DIO mice; 100 mg/kg oral 30 min before glucose 2 g/kg): 32.4% | hypoglycemic effect (DIO mice; doses exceeding 10 mg/kg oral): significant hypoglycemic activity | plasma insulin level versus control group (DIO mice; doses greater than 10 mg/kg, 30 min after glucose administration): significantly higher | hypoglycemic effect (DIO mice; lower doses 1 mg/kg and 3 mg/kg oral): did not exhibit significant hypoglycemic effects | reduction of blood glucose AUC versus vehicle-treated group (normal ICR mice): 30.8%

EC50 (human FFAR4): 93.2 nM
SMILES: Cc1ccc(-c2ccc(F)cc2NC(=O)c2ccc(OCCCC(=O)O)c(F)c2)cc1 [Compound 11f, 4-(2-fluoro-4-((4-fluoro-4′-methyl-[1,1′-biphenyl]-2-yl)carbamoyl)phenoxy)butanoic acid]
reduction of blood glucose AUC versus vehicle-treated group (normal ICR mice): 20.0%

EC50 (human FFAR4): 127 nM
SMILES: Cc1ccc(-c2ccc(F)cc2NC(=O)c2ccc(OCCCCC(=O)O)c(F)c2)cc1 [Compound 12f, 5-(2-fluoro-4-((4-fluoro-4′-methyl-[1,1′-biphenyl]-2-yl)carbamoyl)phenoxy)pentanoic acid]
